Counter-ions that a name gives are not always drawn. Some results are limits rather than exact numbers.

Experiment [1] concerns the target T1, serotonin S2 (5-HT2) receptors in rat cortex (Rattus norvegicus, UniProt P14842).
T1 construct: Serotonin S2 (5-HT2) receptors in membranes from rat; from tissue; host or cells: cerebral cortex membranes of male Wistar rats (printed 'conical tissue', a misprint for cortical)
The experiment in a line: Inhibition of ^3H-ketanserin binding to serotonin S2 (5-HT2) receptors in rat cortex in vitro. To be noted: 0.5 nM ^3H-ketanserin, rat cortex membranes, 37° C., 30 min. As to the method:
Method in Hyttel, Pharmacology & Toxicology, 61, 126-129, 1987.
Male Wistar (Mol:Wist) rats (125-250 g) are sacrificed and conical tissue is dissected and weighed. The tissue is homogenized (Ultra Turrax, 10 sec.) in 10 ml of ice-cold 50 mM tris buffer pH 7.7 (at 25° C.). The centrifuge glassware used in this step has been rinsed by sonication for 10 min. in ethanol. The homogenate is centrifuged twice at 20,000 g for 10 min. at 4° C. with rehomogenization of the pellet in 10 ml ice-cold buffer. The final pellet is homogenized in 500 vol (w/v)ice-cold buffer.
Incubation tubes kept on ice in triplicate receive 100 μl Of drug solution in water (or water for total binding) and 2000 μl of tissue suspension (final tissue content corresponds to 4 mg original tissue). […] After incubation for 30 min. the samples are filtered under vacuum (0-50 mBar) through Whatman GF/F filters (25 mm). The tubes are rinsed with 5 ml ice-cold buffer which are then poured on the filters. Thereafter, the filters are washed with 2×5 ml of buffer. The filters are placed in counting vials and 4 ml of appropriate scintillation fluid (e.g. Picofluor ™15) are added. After shaking for 1 h and storage 2 hrs in the dark the content of radioactivity is determined by liquid scintillation counting. Specific binding is obtained by subtracting the nonspecific binding in the presence of 1 μM mianserin. For determination of the inhibition of binding five concentrations of drugs covering 3 decades are used.
The IC50 value is determined as the concentration at which the binding is 50% of the total binding in control samples minus the nonspecific binding in the presence of 1 μM mianserin.

Experiment [2] concerns the target dopamine D-2 receptors in rat corpus striatum (Rattus norvegicus, UniProt P61169). Nature of the experiment: Inhibition of ^3H-spiperone (spiroperidol) binding to dopamine D-2 receptors in rat corpus striatum in vitro. To be noted: 0.5 nM ^3H-spiperone, rat striatum membranes, 37° C., 10 min. The method, then:
By this method the inhibition by drugs of the binding of ^3 H-spiperone (=^3 H-spiroperidol) (0.5 nM) to dopamine D-2 receptors in membranes from rat corpus striatum is determined in vitro. Method and results in Hyttel & Larsen, J. Neurochem, 44, 1615-1622, 1985).
Male Wistar (Mol:Wistar) rats (125-250 g) are sacrificed and striatal tissue is dissected and weighed. The tissue is homogenized (Ultra Turrax, 10 sec.) in 10 ml of ice-cold 50 mM K-phosphate buffer pH 7.4 (at 25° C.). The homogenate is centrifuged twice at 20,000 g for 10 min. at 4° C. with rehomogenization of the pellet in 10 ml ice-cold buffer. The final pellet is homogenized in 1300 vol (w/v) ice-cold buffer.
Incubation tubes kept on ice in triplicate receive 100 μl of drug solution in water (or water for total binding) and 4000 μl Of tissue suspension (final tissue content corresponds to 3.08 mg original tissue). The binding experimental is initiated by addition of 100 μl of ^3 H-spiperone (final concentration 0.5 nM) and by placing the tubes in a 37° C. water bath. After incubation for 10 min. the samples are filtered under vacuum (0-50 mBar) through Whatman GF/F filters (25 mm). The tubes are rinsed with 5 ml ice-cold buffer which are then poured on the filters. Thereafter, the filters are washed with 2×5 ml of buffer. The filters are placed in counting vials and 4 ml of appropriate scintillation fluid (e.g. Picofluor ™15) are added. After shaking for 1 h and storage 2 hrs in the dark the content of radioactivity is determined by liquid scintillation counting. Specific binding is obtained by subtracting the nonspecific binding in the presence of 10 μM of 6,7-ADTN.
For determination of the inhibition of binding five concentrations of drugs covering 3 decades are used.
The measured cpm are plotted against drug concentration on semilogarithmic paper and the best fitting S-shaped curve is drawn. […] England, specific activity 15-25 Ci/mmol.

Chain of dopamine D-2 receptors in rat corpus striatum (P61169 whole entry): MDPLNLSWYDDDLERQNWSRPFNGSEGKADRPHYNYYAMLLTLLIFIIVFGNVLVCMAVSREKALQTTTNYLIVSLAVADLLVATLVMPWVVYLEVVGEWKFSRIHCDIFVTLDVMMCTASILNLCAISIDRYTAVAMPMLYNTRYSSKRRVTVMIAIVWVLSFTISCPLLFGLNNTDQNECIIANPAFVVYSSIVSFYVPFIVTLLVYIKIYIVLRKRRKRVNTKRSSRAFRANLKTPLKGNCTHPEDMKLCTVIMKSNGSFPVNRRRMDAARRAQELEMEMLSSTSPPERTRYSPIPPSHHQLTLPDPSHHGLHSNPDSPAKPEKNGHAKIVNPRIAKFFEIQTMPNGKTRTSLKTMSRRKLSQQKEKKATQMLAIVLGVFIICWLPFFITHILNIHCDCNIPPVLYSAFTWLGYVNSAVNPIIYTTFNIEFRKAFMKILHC
T1 sequence (P14842 whole entry): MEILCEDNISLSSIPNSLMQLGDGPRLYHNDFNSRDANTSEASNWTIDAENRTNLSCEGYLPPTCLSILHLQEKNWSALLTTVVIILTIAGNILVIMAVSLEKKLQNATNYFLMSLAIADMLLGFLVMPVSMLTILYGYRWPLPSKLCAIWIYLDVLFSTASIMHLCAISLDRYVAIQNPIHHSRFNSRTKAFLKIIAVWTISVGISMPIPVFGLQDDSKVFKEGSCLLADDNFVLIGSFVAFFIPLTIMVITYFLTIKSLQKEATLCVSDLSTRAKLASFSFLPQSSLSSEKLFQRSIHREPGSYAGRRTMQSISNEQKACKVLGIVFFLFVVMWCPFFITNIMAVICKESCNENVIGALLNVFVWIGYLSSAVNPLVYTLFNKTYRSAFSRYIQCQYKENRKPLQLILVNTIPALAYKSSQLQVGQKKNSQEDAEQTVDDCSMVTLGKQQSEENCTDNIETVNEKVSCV

Regarding `CN1CCN(CCN2CCC(n3cc(-c4ccc(F)cc4)c4ccc(Cl)cc43)CC2)C1=O` [Compound 4a, 6-Chloro-3-(4-fluorophenyl)-1-[1-[2-(3-methylimidazolidin-2-on-1-yl)ethyl]-4-piperidyl)-1H-indole, maleate], the figures for the IC50 in experiment [1] and in experiment [2] were 1.5 nM and 46 nM, respectively.
`O=C1NCCN1CCN1CCC(n2cc(-c3ccc(F)cc3)c3ccc(Cl)cc32)CC1` [Compound 4b, 6-Chloro-3-(4-fluorophenyl)-1-[1-[2-(imidazolidin-2-on-1-yl)ethyl]-4-piperidyl]-1H-indole]: the IC50 in experiment [1] amounted to 1.9 nM; in experiment [2], 37 nM.
Turning to `CC(C)N1CCN(CCN2CCC(n3cc(-c4ccc(F)cc4)c4ccc(Cl)cc43)CC2)C1=O` [Compound 4c, 6-Chloro-3-(4-fluorophenyl)-1-[1-[2-[3-(2-propyl)imidazolidin-2-on-1-yl]ethyl]-4-piperidyl]-1H-indole, hydrochloride, hydrate], the concentration for half-maximal inhibition (IC50) in experiment [1] amounted to 3.7 nM; in experiment [2] it was 42 nM.
In the case of `O=C1NCCN1CCN1CCC(n2cc(-c3ccc(F)cc3)c3cc(Cl)ccc32)CC1` [Compound 4d, 5-Chloro-3-(4-fluorophenyl)-1-[1-[2-(imidazolidin-2-on-1-yl)ethyl]-4-piperidyl]-1H-indole], the figures for the IC50 in experiment [1] and in experiment [2] were 5.7 nM and 410 nM, respectively.
On to `CC(C)N1CCN(CCN2CCC(n3cc(-c4ccc(F)cc4)c4cc(Cl)ccc43)CC2)C1=O` [Compound 4e], for which the figures for the IC50 in experiment [1] and in experiment [2] were 5.4 nM and 570 nM, respectively.
On to `CN1CCN(CCN2CCC(n3cc(-c4ccc(F)cc4)c4cc(Cl)ccc43)CC2)C1=O` [Compound 4f, 5-Chloro-3-(4-fluorophenyl)-1-[1-[2-(3-methylimidazolidin-2-on-1-yl)ethyl]-piperidyl]-1H-indole], for which the IC50 in experiment [1] came to 1.4 nM; in experiment [2] it was 550 nM.
Turning to `Cc1ccc2c(c1)c(-c1ccc(F)cc1)cn2C1CCN(CCN2CCNC2=O)CC1` [Compound 4g, 3-(4-Fluorophenyl)-1-[1-[2-(imidazolidin-2-on-1-yl)ethyl]-4-piperidyl]-5-methyl-1H-indole], the IC50 was 1.6 nM in experiment [1] and 920 nM in experiment [2].
On to `Cc1ccc2c(c1)c(-c1ccc(F)cc1)cn2C1CCN(CCN2CCN(C(C)C)C2=O)CC1` [Compound 4h, 3-(4-Fluorophenyl)-5-methyl-1-[1-[2-[3-(2-propyl)imidazolidin-2-on-1-yl]ethyl]-4-piperidyl)-1H-indole, oxalate], for which the figures for the IC50 in experiment [1] and in experiment [2] were 2.7 nM and 1100 nM, respectively.
As to `Cc1ccc2c(c1)c(-c1ccc(F)cc1)cn2C1CCN(CCN2CCN(C)C2=O)CC1` [Compound 4i, 3-(4-Fluorophenyl)-5-methyl-1-[1-[2-(3-methylimidazolidin-2-on-1-yl)ethyl]-4-piperidyl]-1H-indole, fumarate], the IC50 in experiment [1] was 1.4 nM; in experiment [2], 680 nM.
On the same counts, the results for `Cc1ccc2c(c1)c(-c1ccc(F)cc1)cn2C1CCN(CCN2CCCC2=O)CC1` [Compound 4j, 3-(4-Fluorophenyl)-5-methyl-1-[1-[2-(2-pyrrolidinon-1-yl)ethyl]-4-piperidyl]-1H-indole, oxalate] are 4.5 nM and 1200 nM.
Consider `O=C1NCCN1CCN1CCC(n2cc(-c3ccc(F)cc3)c3ccccc32)CC1` [Compound 4k, 3-(4-Fluorophenyl)-1-[1-[2-(imidazolidin-2-on-1-yl)ethyl]-4-piperidyl]-1H-indole], for which the IC50 in experiment [1] is 3.1 nM; in experiment [2] it was 120 nM.
As to `CC(C)N1CCN(CCN2CCC(n3cc(-c4ccc(F)cc4)c4ccccc43)CC2)C1=O` [Compound 4l, 3-(4-Fluorophenyl)-1-[1-[2-[3-(2-propyl)imidazolidin-2-on-1-yl]ethyl]-4-piperidyl]-1H-indole, hydrochloride, hydrate], the IC50 worked out at 3.3 nM in experiment [1] and 74 nM in experiment [2].
Regarding `O=C1NCCN1CCN1CCC(n2cc(-c3ccc(F)cc3)c3cc(F)ccc32)CC1` [Compound 4m, 5-Fluoro-3-(4-fluorophenyl)-1-[1-[2-(imidazolidin-2-on-1-yl)ethyl]-4-piperidyl]-1H-indole], the IC50 was 3.2 nM in experiment [1] and 250 nM in experiment [2].
On the same counts, the results for `CC(C)N1CCN(CCN2CCC(n3cc(-c4ccc(F)cc4)c4cc(F)ccc43)CC2)C1=O` [Compound 4n, 5-Fluoro-3-(4-fluorophenyl)-1-[1-[2-[3-(2-propyl)imidazolidin-2-on-1-yl]ethyl]-4-piperidyl]-1H-indole] are 3.1 nM and 190 nM.
As for `O=C1OCCN1CCN1CCC(n2cc(-c3ccc(F)cc3)c3cc(F)ccc32)CC1` [Compound 4o, 5-Fluoro-3-(4-fluorophenyl)-1-[1-[2-(oxazolidin-2-on-3-yl)ethyl]-4-piperidyl]-1H-indole], the IC50 in experiment [1] amounted to 37 nM; in experiment [2] it was 790 nM.
For the compound `O=C1NCCN1CCN1CCC(n2cc(-c3ccccc3)c3cc(Cl)ccc32)CC1` [Compound 4p, 5-Chloro-3-phenyl-1-[1-[2-(imidazolidin-2-on-1-yl)ethyl]-4-piperidyl]-1H-indole], the IC50 in experiment [1] is 29 nM; in experiment [2], 2800 nM.
Consider `CC(C)N1CCN(CCN2CCC(n3cc(-c4ccccc4)c4cc(Cl)ccc43)CC2)C1=O` [Compound 4q, 5-Chloro-3-phenyl-1-[1-[2-[3-(2-propyl)imidazolidin-2-on-1-yl]ethyl]-4-piperidyl)-1H-indole], for which the IC50 in experiment [1] came out at 25 nM; in experiment [2] it was 3000 nM.
As for `O=C1NCCN1CCN1CCC(N2CC(c3ccc(F)cc3)c3cc(F)ccc32)CC1` (stereo not shown) [Compound 4r, 2,3-Dihydro-3-(4-fluorophenyl)-1-[1-[2-(imidazolidin-2-on-1-yl)ethyl]-4-piperidyl]-5-fluoro-1H-indole], the 50% inhibitory concentration (IC50) in experiment [1] stood at 3.4 nM; in experiment [2], 230 nM.
For the compound `Cc1ccc2c(c1)c(-c1ccc(F)cc1)cn2C1CCN(C(C)C)CC1` [Compound 4s, 3-(4-Fluorophenyl)-5-methyl-1-[1-(2-propyl)-4-piperidyl]-lH-indole, maleate], the IC50 came out at 12 nM in experiment [1] and 330 nM in experiment [2].
`O=C1NCCN1CCN1CCC(n2nc(-c3ccc(F)cc3)c3ccc(Cl)cc32)CC1` [Compound 4t, 6-Chloro-3-(4-fluorophenyl)-1-[1-[2-(imidazolidin-2-on-1-yl)ethyl]-4-piperidyl]-1H-indazole]: the IC50 in experiment [1] turned out to be 38 nM; in experiment [2], 1900 nM.
Consider `O=C1NCCN1CCN1CCC(n2nc(-c3ccc(F)cc3)c3cc(C(F)(F)F)ccc32)CC1` [Compound 4u, 3-(4-Fluorophenyl)-1-[1-[2-(imidazolidin-2-on-1-yl)ethyl]-4-piperidyl]-5-trifluoromethyl-1H-indazole], for which the 50% inhibitory concentration (IC50) in experiment [1] came out at 220 nM; in experiment [2] it was 42000 nM.
For `CC(C)N1CCN(CCN2CCC(n3cc(-c4ccc(F)cc4)c4cc(C(F)(F)F)ccc43)CC2)C1=O` [Compound 4v, 3-(4-Fluorophenyl)-1-[1-[2-[3-(2-propyl)imidazolidin-2-on-1-yl]ethyl]-4piperidyl]-5-trifluoromethyl-1H-indole], in that order: 11 nM and above 1000 nM.
Take `O=C1NCCN1CCN1CCC(n2c(Br)c(-c3ccc(F)cc3)c3ccccc32)CC1` [Compound 4x, 2-Bromo-3-(4-fluorophenyl)-1-[1-[2-(imidazolidin-2-on-1-yl)ethyl]-4-piperidyl]-1H-indole]: the IC50 in experiment [1] was determined as 11 nM; in experiment [2], 650 nM.

The record behind these values is US5393761A, “3-arylindole compounds” (H. Lundbeck A/S, priority 1990, dated 1995).
